The test system of series [1] is TNF-alpha production by human LPS-treated monocytes. In words: Inhibition of TNF-alpha production by human LPS-treated monocytes. The series is classed as cell-based. As to conditions: Monocyte, human mononuclear cells, 4 hours, TNF-α ELISA, read-out: IC50 in the TNFα in vitro assay. How it is done: Inhibition of TNF-alpha Production by Human LPS-treated Monocytes
Mononuclear cells are isolated from heparinized blood (1.5 ml of 1000 units/ml heparin for injection, Elkins-Sinn, Inc. added to each 50 ml sample) using Accuspin System-Histopaque-1077 tubes (Sigma A-7054). Thirty-five milliliters of whole blood are added to each tube and the tubes are centrifuged at 2100 rpm for 20 minutes in a Beckman GS-6KR centrifuge with the brake off at room temperature. The mononuclear cells which collect at the interface are removed, diluted with Macrophage serum free medium (Gibco-BRL) (Medium) to achieve a final volume of 50 ml, and collected by centrifugation for 10 minutes. The supernatant is discarded and the cell pellet is washed 2 times with 50 ml of Medium. A sample of the suspended cells is taken before the second wash for counting. Based on this count, the washed cells are diluted with Medium containing 1% FBS to a final concentration of 2.7×10^6 cells/ml and 75 μl of the cell suspension is added to each well of a 96 well plate.
3-isopropyl-6-[4-(2,5-difluoro-phenyl)-oxazol-5-yl]-[1,2,4]triazolo-[4,3-a]pyridine may be tested at final concentrations from 2 μM to 0.016 μM, but may be tested at other concentrations, depending on desire. […]
Supernatants are analyzed for TNF-α content using R&D ELISA. […]
The amount of TNF-α immunoreactivity in the samples is calculated as follows: […]

Series [2] deals with TNFα. Kind of series: In vivo inhibition of TNFα (LPS-injected rats, serum TNFα ELISA). The following applies: Rattus norvegicus, ip, drug 1 hour before LPS i.p., serum TNFα 90 minutes later. How it is done:
In Vivo Inhibition of TNFα Rats were weighed and dosed with vehicle (0.5% methyl cellulose, Sigma) or drug. One hour later, animals were injected i.p. with LPS (50 ug/rat, Sigma L-4130). Ninety minutes later, animals were sacrificed by asphyxiation with CO2 and bled by cardiac puncture. Blood was collected in Vaccutainer tubes and spun for 20 minutes at 3000 rpm. Serum was assayed for TNFα levels using an ELISA (R&D Systems).
On the technique in general: An ELISA detects its analyte on a solid surface through an enzyme-linked reagent.

In series [3] the test system is MAPKAP kinase-2. Kind of series: MAPKAP Kinase-2 assay (LPS-stimulated monocytes, immunoprecipitation, kinase activity). Type of series: cell-based. The following applies: human monocytes, LPS 30 minutes, MAPKAP kinase-2 immunoprecipitate; read-out: IC50 in the MAPKAP in vitro assay. How it is done: Mononuclear cells are collected from heparinized human blood as detailed above. The washed cells are seeded into 6-well cluster plates at a density of 1×10^7 cells/well (in 2 ml of Medium). The plates are incubated at 37° C. in a 5% CO2 environment for 2 hours to allow adherence of the monocytes, after which time media supernatants containing non-adherent cells are removed by aspiration and 2 ml of fresh medium are added to each well. Plates are incubated overnight at 37° C. in a 5% CO2 environment.
Media are removed by aspiration. The attached cells are rinsed twice with fresh Medium, then 2 ml of D-MEM medium containing 10% heat inactivated FBS are added to each well. 3-isopropyl-6-[4-(2,5-difluoro-phenyl)-oxazol-5-yl]-[1,2,4]triazolo-[4,3-a]pyridine is prepared as a 30 mM stock solution in DMSO and diluted to 1250, 250, 50, 10, 2, and 0.4 μM in D-MEM containing 1% DMSO and 10% FBS. To individual wells of the monocyte cultures, 20 μl of these 3-isopropyl-6-[4-(2,5-difluoro-phenyl)-oxazol-5-yl]-[1,2,4]triazolo-[4,3-a]pyridine dilutions are added resulting in final 3-isopropyl-6-[4-(2,5-difluoro-phenyl)-oxazol-5-yl]-[1,2,4]triazolo-[4,3-a]pyridine concentrations of 12.5, 2.5, 0.5, 0.1, 0.02 and 0.004 μM. After a 10 minute preincubation period, 20 μl of a 10 μg/ml LPS solution are added to each well and the plates are incubated at 37° C. for 30 minutes. […]

Series [4] in a line: Solid-state stability / dehydration of hydrate crystal forms. Type of series: physicochemical. As to conditions: for Dehydration temperature range: solid crystal form. How it is done:
Differential Scanning Calorimetry (DSC) analysis was carried out on either TA Instruments DSC2920 or TA instrument Q1000 or a Mettler DSC 821, calibrated with indium. DSC sample was prepared by weighing 2-4 mg of material in an aluminum pan with a pinhole. The sample was heated under nitrogen, at a rate of 5° C. or 10° C. per minute from 3 to 300 C.

Consider three compounds from patent publication US6949652B2, “Crystalline forms of 3-isopropyl-6-[4-(2,5-difluoro-phenyl)-oxazol-5-yl]-[1,2,4]triazolo-[4,3-A]pyridine” (Pfizer, Inc., priority 2002, dated 2005).

The term IC50 denotes the concentration at which inhibition is half-maximal. In general, ED50 refers to the dose at which the effect has come halfway, by size or by number of responders.

Consider `CC(C)c1nnc2ccc(-c3ocnc3-c3cc(F)ccc3F)cn12` [6-[4-(2,5-Difluoro-phenyl)-oxazol-5-yl]-3-isopropyl-[1,2,4]triazolo-[4,3-a]pyridine], for which the IC50 in series [1] and in series [3] was < 10 µM each time. In addition, the ED50 in series [2] is < 50 mg/kg.
Turning to `CC(C)c1nnc2ccc(-c3ocnc3-c3cc(F)ccc3F)cn12` [Form D, 3-Isopropyl-6-[4-(2,5-difluoro-phenyl)-oxazol-5-yl]-[1,2,4]triazolo-[4,3-a]pyridine form D], the Dehydration temperature range in series [4] fell in the range of 30 to 70 °C.
On to `CC(C)c1nnc2ccc(-c3ocnc3-c3cc(F)ccc3F)cn12` [Form E, 3-Isopropyl-6-[4-(2,5-difluoro-phenyl)-oxazol-5-yl]-[1,2,4]triazolo-[4,3-a]pyridine form E], for which, in series [4], the “Form conversion upon dehydration” value was “converts to Form B upon dehydration” and the Dehydration temperature range was in the range of 75 to 100 °C.
